Data from PubChem BioAssay (NCI).
Several values for one entry are separate records, joined by “and”; a condition that tells them apart may be missing. Identical values can stand only once.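 In this assay, cells in 96-well plates receive the compound at five concentrations for 48 hours. Endpoints are linearly interpolated between the surrounding concentrations. At the GI50, growth is halved. At the TGI there is no net growth.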

How the values were obtained:
Assay in all cases: growth of human tumour cells (NCI), 48 h
COLO 205 colon = tested on: COLO 205 colon
DU-145 prostate = tested on: DU-145 prostate
HCC-2998 colon = tested on: HCC-2998 colon
IGROV1 ovarian = tested on: IGROV1 ovarian
K-562 leukemia = tested on: K-562 leukemia
LOX IMVI melanoma = tested on: LOX IMVI melanoma
NCI-H522 lung = tested on: NCI-H522 lung
OVCAR-5 ovarian = tested on: OVCAR-5 ovarian
PC-3 prostate = tested on: PC-3 prostate
U251 CNS = tested on: U251 CNS

| SMILES | GI50 (COLO 205 colon) | TGI (COLO 205 colon) | GI50 (DU-145 prostate) | TGI (DU-145 prostate) | GI50 (HCC-2998 colon) | TGI (HCC-2998 colon) | GI50 (IGROV1 ovarian) | TGI (IGROV1 ovarian) | GI50 (K-562 leukemia) | TGI (K-562 leukemia) [µM] | GI50 (LOX IMVI melanoma) | TGI (LOX IMVI melanoma) | GI50 (NCI-H522 lung) | TGI (NCI-H522 lung) | GI50 (OVCAR-5 ovarian) | TGI (OVCAR-5 ovarian) | GI50 (PC-3 prostate) | TGI (PC-3 prostate) | GI50 (U251 CNS) | TGI (U251 CNS) |
| --- | --- | --- | --- | --- | --- | --- | --- | --- | --- | --- | --- | --- | --- | --- | --- | --- | --- | --- | --- | --- |
| CC1CC2(C)CC(=O)C1C1C(=O)N(CCN3CCOCC3)C(=O)C12 (centres undefined) | > 100 µM | > 100 µM | > 100 µM | > 100 µM | > 100 µM | > 100 µM | > 100 µM | > 100 µM | > 100 µM | > 100 | > 100 µM | > 100 µM | > 100 µM | > 100 µM | > 100 µM | > 100 µM | > 100 µM | > 100 µM | > 100 µM | > 100 µM |
| O=C(CN1CCN(c2ccccn2)CC1)Nc1ccc(Cl)cc1C(=O)c1ccccc1Cl | > 100 µM | > 100 µM | > 100 µM | > 100 µM | > 100 µM | > 100 µM | 89.2 µM | > 100 µM | 3.55 µM | > 100 | 41.6 µM | > 100 µM | 16.6 µM | > 100 µM | > 100 µM | > 100 µM | 6 µM | > 100 µM | > 100 µM | > 100 µM |
| C=CC(=O)Nc1cccc(Nc2nc(Nc3ccc(N4CCN(C(C)=O)CC4)cc3OC)ncc2C(F)(F)F)c1 | 1.86 µM and 1.78 µM | 4.71 µM and 5.75 µM | 4.23 µM and 2.39 µM | > 10 µM and 17.3 µM | 2.58 µM and 4.62 µM | > 10 µM and 22.4 µM | 1.94 µM and 2.71 µM | 9.84 µM and 13.6 µM | 8.12 µM and 5.61 µM | > 100 | 2.71 µM and 3.04 µM | > 10 µM and 14.2 µM | 0.484 µM and 0.506 µM | 6.73 µM and 7.66 µM | 3.15 µM and 2.29 µM | > 100 µM | 9.75 µM and 4.73 µM | > 10 µM and 27.7 µM | 4.75 µM and 4.08 µM | > 100 µM |
| CCCNC(=O)Nc1ccc2c(c1)Cc1cc(N(CCCl)CCCl)ccc1-2 | – | 26.7 µM | – | 60.9 µM | – | 67.6 µM | – | 50.6 µM | – | > 100 | – | > 100 µM | – | 41 µM | – | > 100 µM | – | > 100 µM | – | > 100 µM |
| CNCC1CCn2c(c(C3=C(c4cn(C)c5ccccc45)C(=O)NC3=O)c3ccccc32)C1 (centres undefined) | 1.47 µM | 4.77 µM | 3.76 µM | 8.6 µM | 3.76 µM | 7.77 µM | 4.14 µM | 9.9 µM | 3.29 µM | 8.41 | 3.84 µM | 7.4 µM | 3.09 µM | 6.49 µM | 3.07 µM | 20.9 µM | 2.39 µM | 8.79 µM | 2.64 µM | 5.91 µM |
| CCCCCCCCCCCCCCCC(N)c1ccccc1 (centres undefined) | 1.68 µM | 3.14 µM | 1.75 µM | 3.22 µM | 1.67 µM | 3.28 µM | 1.78 µM | 3.44 µM | 1.89 µM | 4.2 | 1.52 µM | 3 µM | 1.62 µM | 3.21 µM | 1.49 µM | 3.1 µM | 1.67 µM | 3.26 µM | 1.68 µM | 3.2 µM |
| COc1ccc(-c2cc3c(N)ncnc3o2)cc1 | > 25 µM | > 25 µM | 19.9 µM | > 25 µM | > 25 µM | > 25 µM | 24.3 µM | > 25 µM | > 25 µM | > 25 | > 25 µM | > 25 µM | > 25 µM | > 25 µM | > 25 µM | > 25 µM | > 25 µM | > 25 µM | > 25 µM | > 25 µM |
| CCC(=O)OCN1C(=O)C=CC1=O | 1.84 µM | 3.56 µM and 11.3 µM | 20 µM | 34.2 µM and 30.2 µM | – | 34.1 µM and 33.6 µM | 21.4 µM | 40.5 µM and 34.2 µM | 4.19 µM | – | – | 34.3 µM and 35.1 µM | 2.27 µM | 4.64 µM and 4.58 µM | – | 32.9 µM and 33.1 µM | – | 33.1 µM and 30.9 µM | – | 31.1 µM and 31.6 µM |
